# Activity calls are given as the source filed them. The rule behind the calls is not given here.
# System: CCRIS mutagenicity, Ames/micronucleus/aberration tests
# Assay: CCRIS mutagenicity studies
# [1] = Test System: AMES SALMONELLA TYPHIMURIUM, Strain/Indicator: TA97, Metabolic Activation: NONE, Method: PREINCUBATION
# [2] = Test System: AMES SALMONELLA TYPHIMURIUM, Strain/Indicator: TA98, Metabolic Activation: NONE, Method: PREINCUBATION
# [3] = Test System: AMES SALMONELLA TYPHIMURIUM, Strain/Indicator: TA100, Metabolic Activation: NONE, Method: PREINCUBATION
# [4] = Test System: AMES SALMONELLA TYPHIMURIUM, Strain/Indicator: TA100, Metabolic Activation: NONE, Method: STANDARD PLATE
compound,measurement,setting,value
O=C(NO)c1ccccc1,mutagenic call,"Test System: AMES SALMONELLA TYPHIMURIUM, Strain/Indicator: TA97, Metabolic Activation: HAMSTER, LIVER, S-9, AROCLOR 1254 (10%), Method: PREINCUBATION",active; positive
same,mutagenic call,[1],active; positive
same,mutagenic call,"Test System: AMES SALMONELLA TYPHIMURIUM, Strain/Indicator: TA97, Metabolic Activation: RAT, LIVER, S-9, AROCLOR 1254 (10%), Method: PREINCUBATION",active; positive
same,mutagenic call,"Test System: AMES SALMONELLA TYPHIMURIUM, Strain/Indicator: TA98, Metabolic Activation: HAMSTER, LIVER, S-9, AROCLOR 1254 (10 OR 30%), Method: PREINCUBATION",active; positive
same,mutagenic call,[2],active; positive
same,mutagenic call,"Test System: AMES SALMONELLA TYPHIMURIUM, Strain/Indicator: TA98, Metabolic Activation: RAT, LIVER, S-9, AROCLOR 1254 (10%), Method: PREINCUBATION",active; positive
same,mutagenic call,"Test System: AMES SALMONELLA TYPHIMURIUM, Strain/Indicator: TA98, Metabolic Activation: RAT, LIVER, S-9, AROCLOR 1254 (30%), Method: PREINCUBATION",active; positive
same,mutagenic call,"Test System: AMES SALMONELLA TYPHIMURIUM, Strain/Indicator: TA100, Metabolic Activation: HAMSTER, LIVER, S-9, AROCLOR 1254 (10 OR 30%), Method: PREINCUBATION",active; positive
same,mutagenic call,[3],active; positive
same,mutagenic call,"Test System: AMES SALMONELLA TYPHIMURIUM, Strain/Indicator: TA100, Metabolic Activation: RAT, LIVER, S-9, AROCLOR 1254 (10 OR 30%), Method: PREINCUBATION",active; positive
same,mutagenic call,"Test System: AMES SALMONELLA TYPHIMURIUM, Strain/Indicator: TA1535, Metabolic Activation: HAMSTER, LIVER, S-9, AROCLOR 1254 (10%), Method: PREINCUBATION",active; positive
same,mutagenic call,"Test System: AMES SALMONELLA TYPHIMURIUM, Strain/Indicator: TA1535, Metabolic Activation: NONE, Method: PREINCUBATION",inactive; negative
same,mutagenic call,"Test System: AMES SALMONELLA TYPHIMURIUM, Strain/Indicator: TA1535, Metabolic Activation: RAT, LIVER, S-9, AROCLOR 1254 (10%), Method: PREINCUBATION",active; positive
same,mutagenic call,"Test System: AMES SALMONELLA TYPHIMURIUM, Strain/Indicator: TA1537, Metabolic Activation: HAMSTER, LIVER, S-9, AROCLOR 1254 (10%), Method: PREINCUBATION",active; positive
same,mutagenic call,"Test System: AMES SALMONELLA TYPHIMURIUM, Strain/Indicator: TA1537, Metabolic Activation: NONE, Method: PREINCUBATION",active; positive
same,mutagenic call,"Test System: AMES SALMONELLA TYPHIMURIUM, Strain/Indicator: TA1537, Metabolic Activation: RAT, LIVER, S-9, AROCLOR 1254 (10%), Method: PREINCUBATION",active; positive
O=CNc1ccc(Oc2c(Cl)cc(Cl)cc2Cl)cc1,mutagenic call,[4],inactive; negative
same,mutagenic call,"Test System: AMES SALMONELLA TYPHIMURIUM, Strain/Indicator: TA100, Metabolic Activation: RAT, LIVER, S-9, KANECLOR 500, Method: STANDARD PLATE",active; positive
COC(=O)c1ccccc1N,mutagenic call,[1],inactive; negative
same,mutagenic call,"Test System: AMES SALMONELLA TYPHIMURIUM, Strain/Indicator: TA97, Metabolic Activation: RAT, LIVER, S-9, AROCLOR 1254, Method: PREINCUBATION",inactive; negative
same,mutagenic call,[2],inactive; negative
same,mutagenic call,"Test System: AMES SALMONELLA TYPHIMURIUM, Strain/Indicator: TA98, Metabolic Activation: S-9, Method: PREINCUBATION",inactive; negative
same,mutagenic call,[3],inactive; negative
same,mutagenic call,"Test System: AMES SALMONELLA TYPHIMURIUM, Strain/Indicator: TA100, Metabolic Activation: S-9, Method: PREINCUBATION",inactive; negative
same,mutagenic call,"Test System: AMES SALMONELLA TYPHIMURIUM, Strain/Indicator: TA102, Metabolic Activation: NONE, Method: PREINCUBATION",inactive; negative
same,mutagenic call,"Test System: AMES SALMONELLA TYPHIMURIUM, Strain/Indicator: TA102, Metabolic Activation: RAT, LIVER, S-9, AROCLOR 1254, Method: PREINCUBATION",inactive; negative
same,mutagenic call,"Test System: UDS RODENT HEPATOCYTES, Strain/Indicator: THY INCORP (NON-S-PHASE), Metabolic Activation: NONE, Method: AUTORADIOGRAPHY",inactive; negative
COP(=S)(OC)Oc1ccc(SC)c(C)c1,mutagenic call,"End Point: IN VITRO CHROMOSOMAL ABERRATIONS, Test System: HUMAN PERIPHERAL LYMPHOCYTES, Metabolic Activation: NONE",active; positive (structural changes)
same,mutagenic call,"End Point: In vitro chromosomal aberration, Test System: Chinese hamster ovary (CHO) cells, Metabolic Activation: None",inactive; negative
same,mutagenic call,"End Point: In vitro chromosomal aberration, Test System: Chinese hamster ovary (CHO) cells, Metabolic Activation: Rat, Liver, S-9",inactive; negative
same,mutagenic call,"Test System: UDS Rat hepatocytes, Strain/Indicator: Thymidine incorporation, Metabolic Activation: None, Method: Autoradiography",active; positive
CC(=O)Nc1ccc2ccc3ccc(O)c4ccc1c2c34,mutagenic call,"Test System: AMES SALMONELLA TYPHIMURIUM, Strain/Indicator: TA98(1,8-DNP6), Metabolic Activation: NONE, Method: STANDARD PLATE",inactive; negative
same,mutagenic call,"Test System: AMES SALMONELLA TYPHIMURIUM, Strain/Indicator: TA98(1,8-DNP6), Metabolic Activation: RAT, LIVER, S-9, AROCLOR 1254, Method: STANDARD PLATE",inactive; negative
same,mutagenic call,"Test System: AMES SALMONELLA TYPHIMURIUM, Strain/Indicator: YG1024, Metabolic Activation: NONE, Method: STANDARD PLATE",inactive; negative
same,mutagenic call,"Test System: AMES SALMONELLA TYPHIMURIUM, Strain/Indicator: YG1024, Metabolic Activation: RAT, LIVER, S-9, AROCLOR 1254, Method: STANDARD PLATE",inactive; negative
O=C1OC(CN2CCOCC2)CN1/N=C/c1ccc([N+](=O)[O-])o1 (stereo unspecified),mutagenic call,"Test System: E. COLI, Strain/Indicator: WP2, Metabolic Activation: NONE, Method: SPOT",active; positive
same,mutagenic call,"Test System: E. COLI, Strain/Indicator: WP2 UVRA, Metabolic Activation: NONE, Method: SPOT",active; positive
same,mutagenic call,"Test System: E. COLI, Strain/Indicator: WP2 UVRA, Metabolic Activation: NONE, Method: STANDARD PLATE",active; positive
Cc1occc(=O)c1[O-].Cc1occc(=O)c1[O-].Cc1occc(=O)c1[O-].[Cr+3],mutagenic call,"Test System: AMES SALMONELLA TYPHIMURIUM, Strain/Indicator: TA92, Metabolic Activation: NONE, Method: STANDARD PLATE",inactive; negative
same,mutagenic call,"Test System: AMES SALMONELLA TYPHIMURIUM, Strain/Indicator: TA98, Metabolic Activation: NONE, Method: STANDARD PLATE",inactive; negative
same,mutagenic call,[4],inactive; negative
same,mutagenic call,"Test System: AMES SALMONELLA TYPHIMURIUM, Strain/Indicator: TA104, Metabolic Activation: NONE, Method: STANDARD PLATE",inactive; negative
O=[N+]([O-])c1ccc2sc3ccccc3c2c1,mutagenic call,"Test System: AMES SALMONELLA TYPHIMURIUM, Strain/Indicator: TA98 (1,8-DNP6), Metabolic Activation: NONE, Method: PREINCUBATION",active; positive
same,mutagenic call,"Test System: AMES SALMONELLA TYPHIMURIUM, Strain/Indicator: TA98(NR), Metabolic Activation: NONE, Method: PREINCUBATION",active; positive
same,mutagenic call,"Test System: AMES SALMONELLA TYPHIMURIUM, Strain/Indicator: TA98(NR), Metabolic Activation: RAT LIVER S-9, 3-METHYLCHOLANTHRENE (10%), Method: PREINCUBATION",active; positive
same,mutagenic call,[2],active; positive
